Literature values as cited in article PMC5340309 (Biomacromolecules, 2016).

Experiments:
Details in all cases: included for comparison
[1] = tested on: Methicillin-resistant S. epidermidis (MRSE, RP62A)
[2] = tested on: K. pneumoniae (ATCC 13383)
[3] = tested on: Methicillin-resistant S. aureus (MRSA, ATCC 33591)
[4] = tested on: P. aeruginosa (ATCC27853)

pexiganan
MIC MRSE (Gram+) [1]: 8 µg/mL | MIC K. pneumonia (Gram−) [2]: 32 µg/mL | MIC MRSA (Gram+) [3]: 16 µg/mL | MIC P. aeruginosa (Gram−) [4]: 16 µg/mL
